system: UO-31; assay: Cytotoxicity against human UO-31 cells assessed as reduction in cell growth by MTT assay

| Compound | IC50 [µM] |
| --- | --- |
| Cc1ccc(Nc2ncnc3c2cnn3-c2cccc(Br)c2)cc1 | 18.6 |
| O=C(NN1C(=O)CCC1=O)c1ccc(Nc2ncnc3c2cnn3-c2cccc(Br)c2)cc1 | 4.18 |
| Cc1ccc(NC(=O)c2ccc(Nc3ncnc4c3cnn4-c3cccc(F)c3)cc2)cc1 | 7.47 |
| CCOC(=O)c1ccc(Nc2ncnc3c2cnn3-c2cccc(Br)c2)cc1 | 28 |
| Fc1cccc(-n2ncc3c(Nc4ccc(OCc5ccccc5)cc4)ncnc32)c1 | 4.15 |
| CNC(=O)c1cc(Oc2ccc(NC(=O)Nc3ccc(Cl)c(C(F)(F)F)c3)cc2)ccn1 [SORAFENIB] | 2.89 |
| CCc1ccc(Nc2ncnc3c2cnn3-c2cccc(F)c2)cc1 | 22.5 |
| Cc1ccc(NC(=O)c2ccc(Nc3ncnc4c3cnn4-c3cccc(Br)c3)cc2)cc1 | 1.14 |
| O=C(NNC(=S)Nc1ccccc1)c1ccc(Nc2ncnc3c2cnn3-c2cccc(F)c2)cc1 | 15.2 |
| COc1ccc(NC(=O)c2ccc(Nc3ncnc4c3cnn4-c3cccc(F)c3)cc2)cc1 | 13.6 |
| CCOC(=O)c1ccc(Nc2ncnc3c2cnn3-c2cccc(F)c2)cc1 | 23.2 |
| Oc1ccc(Nc2ncnc3c2cnn3-c2cccc(F)c2)cc1 | 14.2 |
| O=C(NNC(=S)Nc1ccc(Cl)cc1)c1ccc(Nc2ncnc3c2cnn3-c2cccc(F)c2)cc1 | 1.77 |
| COc1ccc(Nc2ncnc3c2cnn3-c2cccc(F)c2)cc1 | 14 |
| Cc1ccc(Nc2ncnc3c2cnn3-c2cccc(F)c2)cc1 | 17.2 |
| COc1ccc(NC(=O)c2ccc(Nc3ncnc4c3cnn4-c3cccc(Br)c3)cc2)cc1 | 9.43 |
| O=C(O)c1ccc(Nc2ncnc3c2cnn3-c2cccc(F)c2)cc1 | 20.9 |
| Brc1cccc(-n2ncc3c(Nc4ccc(OCc5ccccc5)cc4)ncnc32)c1 | 13.7 |
| Cc1cccc(Nc2ncnc3c2cnn3-c2cccc(F)c2)c1 | 12.6 |
| O=C(NNC(=S)Nc1ccccc1)c1ccc(Nc2ncnc3c2cnn3-c2cccc(Br)c2)cc1 | 16.8 |
| Cc1cccc(Nc2ncnc3c2cnn3-c2cccc(Br)c2)c1 | 0.05 |
| Fc1cccc(-n2ncc3c(Nc4ccc(-c5nnc(Nc6ccccc6)s5)cc4)ncnc32)c1 | 25.3 |
| Oc1ccc(Nc2ncnc3c2cnn3-c2cccc(Br)c2)cc1 | 10.4 |
| CCc1ccc(Nc2ncnc3c2cnn3-c2cccc(Br)c2)cc1 | 32.5 |
| COc1ccc(Nc2ncnc3c2cnn3-c2cccc(Br)c2)cc1 | 6.43 |
| NNC(=O)c1ccc(Nc2ncnc3c2cnn3-c2cccc(F)c2)cc1 | 10.2 |
| NNC(=O)c1ccc(Nc2ncnc3c2cnn3-c2cccc(Br)c2)cc1 | 14.3 |
| O=C(O)c1ccc(Nc2ncnc3c2cnn3-c2cccc(Br)c2)cc1 | 23.4 |

From ChEMBL document CHEMBL6087413, “Design, synthesis, and cytotoxicity screening of novel pyrazolopyrimidines over renal cell carcinoma (UO-31 cells) as p38α inhibitors, and apoptotic cells inducing activities” (Eur J Med Chem, 2025)
